Measured values as given in patent US10479780B2, “Aminopyrazole derivatives” (Chugai Seiyaku Kabushiki Kaisha, priority 2015, dated 2019).
Read-outs that look alike come from different tables or passages of the source.

Legend:
Assay type in all cases: biochemical
human Yes1 enzyme = molecular target: T1, human Yes1 enzyme (Homo sapiens, UniProt P07947); test: Yes1 enzyme inhibitory activity (time-resolved fluorometry, biotinylated peptide phosphorylation); conditions: read-out: YES_IC50
T1 construct: made in house
T1 sequence (P07947 whole entry): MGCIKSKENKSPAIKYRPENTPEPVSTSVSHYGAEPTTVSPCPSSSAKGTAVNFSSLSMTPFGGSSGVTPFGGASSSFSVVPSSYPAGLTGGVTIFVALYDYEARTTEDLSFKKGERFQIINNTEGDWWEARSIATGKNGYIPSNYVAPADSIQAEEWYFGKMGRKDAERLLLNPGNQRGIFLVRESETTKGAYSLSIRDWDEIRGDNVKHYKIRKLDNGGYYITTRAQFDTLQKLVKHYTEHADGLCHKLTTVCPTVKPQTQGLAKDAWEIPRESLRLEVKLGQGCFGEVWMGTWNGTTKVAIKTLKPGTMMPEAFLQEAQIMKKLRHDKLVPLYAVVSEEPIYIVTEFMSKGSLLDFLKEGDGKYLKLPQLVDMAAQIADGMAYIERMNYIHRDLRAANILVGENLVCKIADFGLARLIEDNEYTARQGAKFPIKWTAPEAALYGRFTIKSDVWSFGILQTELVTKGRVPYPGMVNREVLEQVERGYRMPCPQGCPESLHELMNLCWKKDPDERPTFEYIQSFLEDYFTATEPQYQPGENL
Experimental: (§1) 1. Yes1 Enzyme Inhibitory Activity Yes1 inhibitory activity was determined based on activity of inhibiting phosphorylation reaction of a biotinylated peptide (EGPWLEEEEEAYGWMDF) using a human Yes1 enzyme prepared using a baculovirus expression system. The phosphorylated biotinylated peptide was detected by time-resolved fluorometry using an anti-phosphorylated tyrosine antibody conjugated to europium cryptate, and streptavidin conjugated to XL665, an allophycocyanin derivative. The 50% inhibitory concentration (IC50) was calculated from the inhibition rate relative to the control group without containing the test substance.

human Src enzyme = molecular target: T2, human Src enzyme (Homo sapiens, UniProt P12931); test: Src enzyme inhibitory activity (time-resolved fluorometry, biotinylated peptide phosphorylation); conditions: biotinylated peptide phosphorylation, read-out: SRC_IC50
T2 construct: purchased Carna Biosciences, Inc. 08-173
T2 sequence (P12931 whole entry): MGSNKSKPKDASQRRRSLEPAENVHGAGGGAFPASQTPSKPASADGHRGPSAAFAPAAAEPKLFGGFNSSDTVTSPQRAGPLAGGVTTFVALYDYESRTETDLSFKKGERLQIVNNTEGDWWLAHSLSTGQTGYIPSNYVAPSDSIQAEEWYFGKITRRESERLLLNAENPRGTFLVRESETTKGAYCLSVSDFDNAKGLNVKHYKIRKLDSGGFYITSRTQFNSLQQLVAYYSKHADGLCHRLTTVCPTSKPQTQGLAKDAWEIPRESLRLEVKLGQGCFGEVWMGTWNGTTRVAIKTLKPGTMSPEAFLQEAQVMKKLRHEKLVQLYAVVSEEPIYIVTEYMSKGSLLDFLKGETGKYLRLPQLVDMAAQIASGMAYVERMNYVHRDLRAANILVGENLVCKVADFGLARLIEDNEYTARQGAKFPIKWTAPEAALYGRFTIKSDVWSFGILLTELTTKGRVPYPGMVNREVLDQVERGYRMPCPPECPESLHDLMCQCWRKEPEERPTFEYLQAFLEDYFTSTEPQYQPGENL
Experimental: as §1, with “2. Src” for “1. Yes1”, “Src” for “Yes1”, “(manufactured by Carna Biosciences, Inc., cat 08-173).” for “prepared using a baculovirus expression system.”

human Lck enzyme = molecular target: T3, human Lck enzyme (Homo sapiens, UniProt P06239); test: Lck enzyme inhibitory activity (time-resolved fluorometry, biotinylated peptide phosphorylation); conditions: read-out: LCK_IC50
T3 construct: purchased Carna Biosciences, Inc. 08-170
T3 sequence (P06239 whole entry): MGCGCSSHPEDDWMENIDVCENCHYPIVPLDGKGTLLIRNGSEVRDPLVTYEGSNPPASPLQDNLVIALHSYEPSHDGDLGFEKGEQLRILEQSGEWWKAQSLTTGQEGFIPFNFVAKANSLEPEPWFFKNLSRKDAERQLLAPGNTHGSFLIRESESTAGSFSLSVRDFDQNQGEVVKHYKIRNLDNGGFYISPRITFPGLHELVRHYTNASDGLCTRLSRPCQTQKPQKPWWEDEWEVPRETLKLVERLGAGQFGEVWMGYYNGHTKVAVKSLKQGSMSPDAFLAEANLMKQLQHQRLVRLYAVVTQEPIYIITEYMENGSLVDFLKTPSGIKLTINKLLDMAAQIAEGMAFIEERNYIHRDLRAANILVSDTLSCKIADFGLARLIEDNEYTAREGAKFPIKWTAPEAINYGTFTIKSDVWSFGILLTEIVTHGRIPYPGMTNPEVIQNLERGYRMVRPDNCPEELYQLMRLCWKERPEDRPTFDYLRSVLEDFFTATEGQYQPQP
Experimental: as §1, with “3. Lck” for “1. Yes1”, “Lck” for “Yes1”, “(manufactured by Carna Biosciences, Inc., cat 08-170).” for “prepared using a baculovirus expression system.”

[1] = biotinylated peptide phosphorylation

| IC50 (human Yes1 enzyme; [1]) | IC50 (human Src enzyme) | IC50 (human Lck enzyme; [1]) | IC50 (human Yes1 enzyme) | IC50 (human Lck enzyme) | SMILES |
| --- | --- | --- | --- | --- | --- |
| 1.2 nM | 45 nM | 8.2 nM | – | – | Cc1cc2cc(C(=O)c3cnn(-c4cnc(Oc5c(F)cccc5F)cc4C)c3N)[nH]c2cc1NS(C)(=O)=O [Example 4-1-001, N-{2-{5-amino-1-[6-(2,6-difluorophenoxy)-4-methylpyridin-3-yl]pyrazole-4-carbonyl}-5-methyl-1H-indol-6-yl}methanesulfonamide] |
| – | – | – | 270 nM | 1900 nM | Cc1cc(-n2ncc(C(=O)c3cc4cc(F)c(NS(C)(=O)=O)cc4[nH]3)c2N)cnc1Oc1cccc(Cl)c1 [Example 5-1-042, N-[2-[5-amino-1-[6-(3-chlorophenoxy)-5-methylpyridin-3-yl]pyrazole-4-carbonyl]-5-fluoro-1H-indol-6-yl]methanesulfonamide] |
| – | – | – | 210 nM | 4400 nM | Cc1cc(-n2ncc(C(=O)c3cc4cc(F)c(NS(C)(=O)=O)cc4[nH]3)c2N)cnc1Oc1cc(F)cc(F)c1 [Example 5-1-045, N-[2-[5-amino-1-[6-(3,5-difluorophenoxy)-5-methylpyridin-3-yl]pyrazole-4-carbonyl]-5-fluoro-1H-indol-6-yl]methanesulfonamide] |
| – | – | – | 7.3 nM | 7800 nM | Cc1cc(-n2ncc(C(=O)c3cc4cc(OC(F)F)c(Br)cc4[nH]3)c2N)ccc1Oc1ccccc1F [Example 5-1-152, [5-amino-1-[4-(2-fluorophenoxy)-3-methylphenyl]pyrazol-4-yl]-[6-bromo-5-(difluoromethoxy)-1H-indol-2-yl]methanone] |
| – | – | – | 9.1 nM | – | Cc1cc2cc(C(=O)c3cnn(-c4cc(C)c(Oc5ccccc5F)cc4F)c3N)[nH]c2cc1NS(C)(=O)=O [Example 5-1-206, N-[2-[5-amino-1-[2-fluoro-4-(2-fluorophenoxy)-5-methylphenyl]pyrazole-4-carbonyl]-5-methyl-1H-indol-6-yl]methanesulfonamide] |
| – | – | – | 3.4 nM | 400 nM | Cc1cc(-n2ncc(C(=O)c3cc4cc(OC5CCN(C6CS(=O)(=O)C6)CC5)c(-c5ccccc5Cl)cc4[nH]3)c2N)ccc1Oc1ccccc1F [Example 5-1-289, [5-amino-1-[4-(2-fluorophenoxy)-3-methylphenyl]pyrazol-4-yl]-[6-(2-chlorophenyl)-5-[1-(1,1-dioxothietan-3-yl)piperidin-4-yl]oxy-1H-indol-2-yl]methanone] |
| 31 nM | – | 870 nM | – | – | Cc1cc(-n2ncc(C(=O)c3cc4cc(C)c(N5C(=O)NC6(CCCCC6)C5=O)cc4[nH]3)c2N)ccc1Oc1ccccc1F [Example 5-1-470, 3-[2-[5-amino-1-[4-(2-fluorophenoxy)-3-methylphenyl]pyrazole-4-carbonyl]-5-methyl-1H-indol-6-yl]-1,3-diazaspiro[4.5]decane-2,4-dione] |
| 81 nM | – | 980 nM | – | – | Cc1cc(-n2ncc(C(=O)c3cc4cc(C)c(N5C(=O)NC6(CCN(C(=O)OC(C)(C)C)CC6)C5=O)cc4[nH]3)c2N)ccc1Oc1ccccc1F [Example 5-1-471, tert-Butyl 3-[2-[5-amino-1-[4-(2-fluorophenoxy)-3-methylphenyl]pyrazole-4-carbonyl]-5-methyl-1H-indol-6-yl]-2,4-dioxo-1,3,8-triazaspiro[4.5]decane-8-carboxylate] |
| 40 nM | – | 710 nM | – | – | Cc1cc(-n2ncc(C(=O)c3cc4cc(C)c(N5C(=O)NC(C)(C(F)(F)F)C5=O)cc4[nH]3)c2N)ccc1Oc1ccccc1F (stereo not drawn) [Example 5-1-472, 3-[2-[5-amino-1-[4-(2-fluorophenoxy)-3-methylphenyl]pyrazole-4-carbonyl]-5-methyl-1H-indol-6-yl]-5-methyl-5-(trifluoromethyl) imidazolidine-2,4-dione] |
| 5.3 nM | – | 3000 nM | – | – | Cc1cc(-n2ncc(C(=O)c3cc4cc(F)c(NS(=O)(=O)C5CCOCC5)cc4[nH]3)c2N)ccc1Oc1ccccc1F [Example 5-1-493, N-[2-[5-amino-1-[4-(2-fluorophenoxy)-3-methylphenyl]pyrazole-4-carbonyl]-5-fluoro-1H-indol-6-yl]oxane-4-sulfonamide] |

More lines, now with the values behind:

| SMILES | IC50 (human Yes1 enzyme; [1]) | IC50 (human Src enzyme) | IC50 (human Lck enzyme; [1]) | IC50 (human Yes1 enzyme) | IC50 (human Lck enzyme) |
| --- | --- | --- | --- | --- | --- |
| Cc1cc(Oc2ccccc2F)ccc1-n1ncc(C(=O)c2cc3cc(F)c(NS(C)(=O)=O)cc3[nH]2)c1N [Example 4-1-002, N-[2-[5-amino-1-[4-(2-fluorophenoxy)-2-methylphenyl]pyrazole-4-carbonyl]-5-fluoro-1H-indol-6-yl]methanesulfonamide] | 0.52 nM | 21 nM | 7.6 nM | – | – |
| CS(=O)(=O)Nc1cc2[nH]c(C(=O)c3cnn(-c4ccc(Oc5ccccn5)cc4Cl)c3N)cc2cc1F [Example 4-1-003, N-[2-[5-amino-1-(2-chloro-4-pyridin-2-yloxyphenyl)pyrazole-4-carbonyl]-5-fluoro-1H-indol-6-yl]methanesulfonamide] | 1.2 nM | 55 nM | 14 nM | – | – |
| Cc1cc(-n2ncc(C(=O)c3cc4cc(F)c(NS(C)(=O)=O)cc4[nH]3)c2N)cnc1Oc1ccccc1Cl [Example 5-1-041, N-[2-[5-amino-1-[6-(2-chlorophenoxy)-5-methylpyridin-3-yl]pyrazole-4-carbonyl]-5-fluoro-1H-indol-6-yl]methanesulfonamide] | – | – | – | 93 nM | 2000 nM |
| Cc1cc(-n2ncc(C(=O)c3cc4cc(F)c(NS(C)(=O)=O)cc4[nH]3)c2N)cnc1Oc1c(F)cccc1Cl [Example 5-1-043, N-[2-[5-amino-1-[6-(2-chloro-6-fluorophenoxy)-5-methylpyridin-3-yl]pyrazole-4-carbonyl]-5-fluoro-1H-indol-6-yl] methanesulfonamide] | – | – | – | 38 nM | 2600 nM |
| Cc1cc(-n2ncc(C(=O)c3cc4cc(F)c(NS(C)(=O)=O)cc4[nH]3)c2N)cnc1Oc1cccc(F)c1F [Example 5-1-044, N-[2-[5-amino-1-[6-(2,3-difluorophenoxy)-5-methylpyridin-3-yl]pyrazole-4-carbonyl]-5-fluoro-1H-indol-6-yl]methanesulfonamide] | – | – | – | 52 nM | 2700 nM |
| Cc1cc(-n2ncc(C(=O)c3cc4cc(OCC(F)F)c(Br)cc4[nH]3)c2N)ccc1Oc1ccccc1F [Example 5-1-150, [5-amino-1-[4-(2-fluorophenoxy)-3-methylphenyl]pyrazol-4-yl]-[6-bromo-5-(2,2-difluoroethoxy)-1H-indol-2-yl]methanone] | – | – | – | 4.8 nM | 320 nM |
| Cc1cc2cc(C(=O)c3cnn(-c4ccc(Oc5cccc(F)c5)c(C)c4)c3N)[nH]c2cc1NS(C)(=O)=O [Example 5-1-211, N-[2-[5-amino-1-[4-(3-fluorophenoxy)-3-methylphenyl]pyrazole-4-carbonyl]-5-methyl-1H-indol-6-yl]methanesulfonamide] | – | – | – | 26 nM | 4400 nM |
| Cc1cc(-n2ncc(C(=O)c3cc4cc(OCC(F)F)c(-c5cccs5)cc4[nH]3)c2N)ccc1Oc1ccccc1F [Example 5-1-256, [5-amino-1-[4-(2-fluorophenoxy)-3-methylphenyl]pyrazol-4-yl]-[5-(2,2-difluoroethoxy)-6-thiophen-2-yl-1H-indol-2-yl] methanone] | – | – | – | 120 nM | – |
| Cc1cc2cc(C(=O)c3cnn(-c4ccc(Oc5ccccc5F)c(C)c4)c3N)[nH]c2cc1NS(C)(=O)=O [Example 5-1-307, N-[2-[5-amino-1-[4-(2-fluorophenoxy)-3-methylphenyl]pyrazole-4-carbonyl]-5-methyl-1H-indol-6-yl]methanesulfonamide] | – | – | – | 26 nM | 720 nM |
| Cc1cc(-n2ncc(C(=O)c3cc4cc(OC5CCN(C6CS(=O)(=O)C6)CC5)c(-c5ccccc5C)cc4[nH]3)c2N)ccc1Oc1ccccc1F [Example 5-1-336, [5-amino-1-[4-(2-fluorophenoxy)-3-methylphenyl]pyrazol-4-yl]-[5-[1-(1,1-dioxothietan-3-yl)piperidin-4-yl]oxy-6-(2-methylphenyl)-1H-indol-2-yl]methanone] | – | – | – | 4.2 nM | 240 nM |
| Cc1cc(-n2ncc(C(=O)c3cc4cc(OC5CCN(C6CS(=O)(=O)C6)CC5)c(-c5ccccc5C(F)(F)F)cc4[nH]3)c2N)ccc1Oc1ccccc1F [Example 5-1-386, (5-amino-1-(4-(2-fluorophenoxy)-3-methylphenyl)-1H-pyrazol-4-yl)(5-((1-(1,1-dioxidothietan-3-yl)piperidin-4-yl)oxy)-6-(2-(trifluoromethyl)phenyl)-1H-indol-2-yl)methanone] | – | – | – | 3.9 nM | 1000 nM |
| Cc1cc(-n2ncc(C(=O)c3cc4cc(C)c(N5C(=O)NC6(CCCC6)C5=O)cc4[nH]3)c2N)ccc1Oc1ccccc1F [Example 5-1-474, 3-[2-[5-amino-1-[4-(2-fluorophenoxy)-3-methylphenyl]pyrazole-4-carbonyl]-5-methyl-1H-indol-6-yl]-1,3-diazaspiro[4.4]nonane-2,4-dione] | 27 nM | – | 650 nM | – | – |
